Assay results from patent publication US20230257396A1, “MACROCYCLES AND THEIR USE” (BLOSSOMHILL THERAPEUTICS, INC., priority 2020, published 2023).
Where a chain is given by its changes, count along the chain named.

Columns and labels:
Assay in all cases: KINOMEscan kinase binding assay (Eurofins/DiscoveRx), % Ctrl
kinases [1] = target: T1, kinases (Homo sapiens, UniProt P00519, E255K)
T1 construct: purchased Eurofins/DiscoveRx; host or cells: E. coli BL21-derived host (T7 phage display) for most kinases; HEK-293 for the rest
T1 sequence (P00519 whole entry E255K): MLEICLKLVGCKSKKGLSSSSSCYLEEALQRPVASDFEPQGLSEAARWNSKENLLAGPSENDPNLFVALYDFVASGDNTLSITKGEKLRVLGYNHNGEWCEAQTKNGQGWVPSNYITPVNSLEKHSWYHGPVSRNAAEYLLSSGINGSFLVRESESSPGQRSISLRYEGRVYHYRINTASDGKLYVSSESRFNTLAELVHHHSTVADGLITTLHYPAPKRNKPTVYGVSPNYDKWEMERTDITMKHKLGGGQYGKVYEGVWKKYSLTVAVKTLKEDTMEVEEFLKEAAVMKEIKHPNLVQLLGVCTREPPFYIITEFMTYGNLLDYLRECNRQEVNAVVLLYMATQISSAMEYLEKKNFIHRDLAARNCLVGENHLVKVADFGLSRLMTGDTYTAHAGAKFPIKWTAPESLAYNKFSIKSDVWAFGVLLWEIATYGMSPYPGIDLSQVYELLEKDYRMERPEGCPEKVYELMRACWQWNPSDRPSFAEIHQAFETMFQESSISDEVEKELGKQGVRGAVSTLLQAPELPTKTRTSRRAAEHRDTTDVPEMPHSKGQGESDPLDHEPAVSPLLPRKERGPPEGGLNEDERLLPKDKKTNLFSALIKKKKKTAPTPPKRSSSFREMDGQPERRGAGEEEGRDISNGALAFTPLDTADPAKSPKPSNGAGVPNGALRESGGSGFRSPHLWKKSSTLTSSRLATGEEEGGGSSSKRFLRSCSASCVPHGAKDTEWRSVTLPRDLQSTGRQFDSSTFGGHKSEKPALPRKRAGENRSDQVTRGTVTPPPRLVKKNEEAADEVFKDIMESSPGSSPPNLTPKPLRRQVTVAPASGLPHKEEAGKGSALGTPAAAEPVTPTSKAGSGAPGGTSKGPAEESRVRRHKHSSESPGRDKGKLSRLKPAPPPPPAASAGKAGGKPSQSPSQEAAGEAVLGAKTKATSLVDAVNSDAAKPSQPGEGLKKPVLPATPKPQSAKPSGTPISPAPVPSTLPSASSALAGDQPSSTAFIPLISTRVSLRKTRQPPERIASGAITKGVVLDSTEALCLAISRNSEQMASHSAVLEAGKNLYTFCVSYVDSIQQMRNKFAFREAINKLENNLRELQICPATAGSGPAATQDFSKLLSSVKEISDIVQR
Summary of the method: (§1)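 Competition binding: DNA- or phage-tagged kinases (T7 phage in E. coli BL21, or HEK-293-expressed) with immobilized biotinylated ligand beads and test compound, 1 h at room temperature. Bead-bound kinase eluted and quantified by qPCR; % Ctrl = (compound − positive control)/(negative control − positive control) ×100 at a single compound concentration.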

kinases [2] = target: T2, kinases (Homo sapiens, UniProt P00519, F317L)
T2 construct: purchased Eurofins/DiscoveRx; host or cells: E. coli BL21-derived host (T7 phage display) for most kinases; HEK-293 for the rest
T2 sequence (P00519 whole entry F317L): as the sequence (P00519 whole entry E255K) above, with K255E, F317L counted along it
Summary of the method: as §1

kinases [3] = target: T3, kinases (Homo sapiens, UniProt P00533, G719S)
T3 construct: purchased Eurofins/DiscoveRx; host or cells: E. coli BL21-derived host (T7 phage display) for most kinases; HEK-293 for the rest
Summary of the method: as §1

kinases [4] = target: T4, kinases (Homo sapiens, UniProt P10721, D816H)
T4 construct: purchased Eurofins/DiscoveRx; host or cells: E. coli BL21-derived host (T7 phage display) for most kinases; HEK-293 for the rest
T4 sequence (P10721 26-976 D816H): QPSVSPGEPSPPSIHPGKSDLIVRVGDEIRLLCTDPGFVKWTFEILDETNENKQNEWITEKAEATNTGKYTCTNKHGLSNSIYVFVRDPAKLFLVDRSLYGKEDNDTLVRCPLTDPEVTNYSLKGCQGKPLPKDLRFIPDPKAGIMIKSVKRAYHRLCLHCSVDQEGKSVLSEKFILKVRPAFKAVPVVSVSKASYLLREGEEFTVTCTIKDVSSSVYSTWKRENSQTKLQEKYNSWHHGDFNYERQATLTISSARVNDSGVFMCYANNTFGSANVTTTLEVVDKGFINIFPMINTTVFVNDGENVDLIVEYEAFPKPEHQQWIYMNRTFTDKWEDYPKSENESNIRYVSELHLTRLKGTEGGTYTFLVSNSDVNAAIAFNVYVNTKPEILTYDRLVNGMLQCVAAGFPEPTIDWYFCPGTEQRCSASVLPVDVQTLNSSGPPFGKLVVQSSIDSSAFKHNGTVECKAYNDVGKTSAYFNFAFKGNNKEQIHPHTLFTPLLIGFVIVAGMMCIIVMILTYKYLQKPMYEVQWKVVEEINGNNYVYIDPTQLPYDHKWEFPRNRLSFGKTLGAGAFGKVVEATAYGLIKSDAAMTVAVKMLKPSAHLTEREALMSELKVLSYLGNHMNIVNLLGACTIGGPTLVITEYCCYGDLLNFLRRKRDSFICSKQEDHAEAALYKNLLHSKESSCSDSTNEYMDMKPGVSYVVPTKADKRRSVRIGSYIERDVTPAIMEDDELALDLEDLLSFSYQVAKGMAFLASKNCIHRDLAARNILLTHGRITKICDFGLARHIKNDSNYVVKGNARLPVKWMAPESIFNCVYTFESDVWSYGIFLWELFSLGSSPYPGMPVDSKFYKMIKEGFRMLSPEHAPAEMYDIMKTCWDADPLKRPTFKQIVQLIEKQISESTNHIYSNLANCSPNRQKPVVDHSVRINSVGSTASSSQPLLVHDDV
Summary of the method: as §1

kinases [5] = target: T5, kinases (Homo sapiens, UniProt P36888, D835H)
T5 construct: purchased Eurofins/DiscoveRx; host or cells: E. coli BL21-derived host (T7 phage display) for most kinases; HEK-293 for the rest
T5 sequence (P36888 27-993 D835H): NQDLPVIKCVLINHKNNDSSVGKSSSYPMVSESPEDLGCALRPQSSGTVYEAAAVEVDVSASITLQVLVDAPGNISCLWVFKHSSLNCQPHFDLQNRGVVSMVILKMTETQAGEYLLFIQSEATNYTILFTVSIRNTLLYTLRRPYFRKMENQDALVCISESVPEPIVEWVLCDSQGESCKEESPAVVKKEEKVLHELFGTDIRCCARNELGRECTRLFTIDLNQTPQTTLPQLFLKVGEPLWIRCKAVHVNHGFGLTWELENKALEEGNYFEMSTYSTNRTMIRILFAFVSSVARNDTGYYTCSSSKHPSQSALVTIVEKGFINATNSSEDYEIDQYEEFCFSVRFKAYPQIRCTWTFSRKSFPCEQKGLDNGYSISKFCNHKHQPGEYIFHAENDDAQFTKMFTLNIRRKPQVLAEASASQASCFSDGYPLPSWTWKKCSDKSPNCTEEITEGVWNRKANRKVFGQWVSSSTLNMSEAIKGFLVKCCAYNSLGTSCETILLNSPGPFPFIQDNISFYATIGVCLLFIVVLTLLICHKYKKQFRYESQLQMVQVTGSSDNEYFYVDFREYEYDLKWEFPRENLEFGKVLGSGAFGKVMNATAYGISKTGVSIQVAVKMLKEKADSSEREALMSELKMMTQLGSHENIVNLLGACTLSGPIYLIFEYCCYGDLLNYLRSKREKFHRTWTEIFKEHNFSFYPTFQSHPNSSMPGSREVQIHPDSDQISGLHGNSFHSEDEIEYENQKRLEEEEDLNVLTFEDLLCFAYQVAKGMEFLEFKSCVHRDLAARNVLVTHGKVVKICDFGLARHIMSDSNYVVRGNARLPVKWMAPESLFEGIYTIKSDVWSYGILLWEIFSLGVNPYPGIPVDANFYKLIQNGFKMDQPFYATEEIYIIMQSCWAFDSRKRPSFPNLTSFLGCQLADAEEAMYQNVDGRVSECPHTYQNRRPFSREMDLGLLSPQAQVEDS
Summary of the method: as §1

kinases [6] = target: T6, kinases (Homo sapiens, UniProt P36888, D835V)
T6 construct: purchased Eurofins/DiscoveRx; host or cells: E. coli BL21-derived host (T7 phage display) for most kinases; HEK-293 for the rest
T6 sequence (P36888 27-993 D835V): T5 sequence (P36888 27-993 D835H) with H809V
Summary of the method: as §1

[7] = 1 μM; ABL1(E255K)-phosphorylated
[8] = 1 μM; ABL1(F317L)-nonphosphorylated
[9] = 1 μM; ABL1(F317L)-phosphorylated

| % Ctrl, ABL1(E255K)-phosphorylated (kinases [1]; [7]) | % Ctrl, ABL1(F317L)-nonphosphorylated (kinases [2]; [8]) | % Ctrl, ABL1(F317L)-phosphorylated (kinases [2]; [9]) | % Ctrl, EGFR(G719S) (kinases [3]; 1 μM; EGFR(G719S)) | % Ctrl, KIT(D816H) (kinases [4]; 1 μM; KIT(D816H)) | % Ctrl, FLT3(D835H) (kinases [5]; 1 μM; FLT3(D835H)) | % Ctrl, FLT3(D835V) (kinases [6]; 1 μM; FLT3(D835V)) | SMILES | other results |
| --- | --- | --- | --- | --- | --- | --- | --- | --- |
| 56 % Ctrl | 78 % Ctrl | 64 % Ctrl | 92 % Ctrl | 80 % Ctrl | 37 % Ctrl | 6 % Ctrl | CNC(=O)[C@H]1CN(C)C(=O)c2cc(C)[nH]c2/C=C2\C(=O)Nc3cc(Cl)c(cc32)OCCO1 [Ex. 135, [7R,16a(17)Z]-19-chloro-N,2,5-trimethyl-4,16-dioxo-4,5,6,7,9,10,15,16-octahydro-1H-12,14-(ethanediylidene)dipyrrolo[3,2-i:3′,4′-l][1,4,7]dioxazacyclopentadecine-7-carboxamide] |  |
| 36 % Ctrl | 59 % Ctrl | 44 % Ctrl | 92 % Ctrl | 48 % Ctrl | 32 % Ctrl | 2 % Ctrl | Cc1cc2c([nH]1)/C=C1\C(=O)Nc3cc(Cl)c(cc31)OCCO[C@@H](C(=O)N[C@@H]1CCNC1)CN(C)C2=O [Ex. 136, [7R,16a(17)Z]-19-chloro-2,5-dimethyl-4,16-dioxo-N-[(3R)-pyrrolidin-3-yl]-4,5,6,7,9,10,15,16-octahydro-1H-12,14-(ethanediylidene)dipyrrolo[3,2-i:3′,4′-l][1,4,7]dioxazacyclopentadecine-7-carboxamide] |  |
| 64 % Ctrl | 76 % Ctrl | 67 % Ctrl | 98 % Ctrl | 74 % Ctrl | 53 % Ctrl | 8.5 % Ctrl | Cc1cc2c([nH]1)/C=C1\C(=O)Nc3cc(Cl)c(cc31)OCCO[C@@H](C(=O)N(C)C)CN(C)C2=O [Ex. 137, [7R,16a(17)Z]-19-chloro-N,N,2,5-tetramethyl-4,16-dioxo-4,5,6,7,9,10,15,16-octahydro-1H-12,14-(ethanediylidene)dipyrrolo[3,2-i:3′,4′-l][1,4,7]dioxazacyclopentadecine-7-carboxamide] |  |

Continued, molecule first:

| SMILES | % Ctrl, ABL1(E255K)-phosphorylated (kinases [1]; [7]) | % Ctrl, ABL1(F317L)-nonphosphorylated (kinases [2]; [8]) | % Ctrl, ABL1(F317L)-phosphorylated (kinases [2]; [9]) | % Ctrl, EGFR(G719S) (kinases [3]; 1 μM; EGFR(G719S)) | % Ctrl, KIT(D816H) (kinases [4]; 1 μM; KIT(D816H)) | % Ctrl, FLT3(D835H) (kinases [5]; 1 μM; FLT3(D835H)) | % Ctrl, FLT3(D835V) (kinases [6]; 1 μM; FLT3(D835V)) | other results |
| --- | --- | --- | --- | --- | --- | --- | --- | --- |
| Cc1cc2c([nH]1)/C=C1\C(=O)Nc3ccc(cc31)-c1c(noc1C(C)C)COCCN(C)C2=O [Ex. 161, [3a(4)Z]-9-methyl-16-(propan-2-yl)-10,11-dihydro-2H,13H-1,17-(ethanediylidene)[1,2]oxazolo[4,3-m]dipyrrolo[3,2-f:3′,4′-i][1,4]oxazacyclopentadecine-3,8(5H,9H)-dione] |  |  |  |  |  |  |  | % Ctrl, ABL1(E255K)-phosphorylated (kinases [1]; 1 μM; target ABL1(E255K)-phosphorylated): 86 % Ctrl; % Ctrl, ABL1(F317L)-nonphosphorylated (kinases [2]; 1 μM; target ABL1(F317L)-nonphosphorylated): 93 % Ctrl; % Ctrl, ABL1(F317L)-phosphorylated (kinases [2]; 1 μM; target ABL1(F317L)-phosphorylated): 94 % Ctrl; % Ctrl, EGFR(G719S) (kinases [3]; 1 μM; target EGFR(G719S)): 58 % Ctrl; % Ctrl, KIT(D816H) (kinases [4]; 1 μM; target KIT(D816H)): 100 % Ctrl; % Ctrl, FLT3(D835H) (kinases [5]; 1 μM; target FLT3(D835H)): 48 % Ctrl; % Ctrl, FLT3(D835V) (kinases [6]; 1 μM; target FLT3(D835V)): 23 % Ctrl |
| Cc1cc2c([nH]1)/C=C1\C(=O)Nc3ccc(cc31)OCCOCCN(C)C2=O [Ex.91, [16a(17)Z]-2,5-dimethyl-6,7,9,10-tetrahydro-1H-12,14-(ethanediylidene)dipyrrolo[3,2-i:3′,4′-l][1,4,7]dioxazacyclopentadecine-4,16(5H,15H)-dione] | 14 % Ctrl | 12 % Ctrl | 20 % Ctrl | 87 % Ctrl | 41 % Ctrl | 1.2 % Ctrl | 0.05 % Ctrl |  |
| Cc1cc2c([nH]1)/C=C1\C(=O)Nc3ccc(cc31)-c1cnn(C)c1CNCCN(C)C2=O [Ex. 125, [3a(4)Z]-6,9,14-trimethyl-9,10,11,12,13,14-hexahydro-1,17-(ethanediylidene)pyrazolo[4,3-m]dipyrrolo[3,2-f:3′,4′-i][1,4]diazacyclopentadecine-3,8(2H,5H)-dione] | 0.05 % Ctrl | 0 % Ctrl | 0.55 % Ctrl | 88 % Ctrl | 0.65 % Ctrl | 0.05 % Ctrl | 0.25 % Ctrl |  |
| Cc1cc2c([nH]1)/C=C1\C(=O)Nc3cc(Cl)c(cc31)OCCOCCN(C)C2=O [Ex. 131, [16a(17)Z]-19-chloro-2,5-dimethyl-6,7,9,10-tetrahydro-1H-12,14-(ethanediylidene)dipyrrolo[3,2-i:3′,4′-l][1,4,7]dioxazacyclopentadecine-4,16(5H,15H)-dione] | 0 % Ctrl | 0 % Ctrl | 1.3 % Ctrl | 80 % Ctrl | 6.2 % Ctrl | 0 % Ctrl | 0 % Ctrl |  |
| Cc1cc2c([nH]1)/C=C1\C(=O)Nc3cnc(cc31)-c1cn[nH]c1CNCCN(C)C2=O [Ex. 55, [3a(4)Z]-6,9-dimethyl-9,10,11,12,13,14-hexahydro-17,1-(azenometheno)pyrazolo[4,3-m]dipyrrolo[3,2-f:3′,4′-i][1,4]diazacyclopentadecine-3,8(2,5H)-dione] |  |  |  |  |  |  |  | % Ctrl, ABL1(E255K)-phosphorylated (kinases [1]; target ABL1(E255K)-phosphorylated; 1 μM): 2.6 % Ctrl; % Ctrl, ABL1(F317L)-nonphosphorylated (kinases [2]; target ABL1(F317L)-nonphosphorylated; 1 μM): 24 % Ctrl; % Ctrl, ABL1(F317L)-phosphorylated (kinases [2]; target ABL1(F317L)-phosphorylated; 1 μM): 10 % Ctrl; % Ctrl, EGFR(G719S) (kinases [3]; target EGFR(G719S); 1 μM): 67 % Ctrl; % Ctrl, KIT(D816H) (kinases [4]; target KIT(D816H); 1 μM): 18 % Ctrl; % Ctrl, FLT3(D835H) (kinases [5]; target FLT3(D835H); 1 μM): 2.7 % Ctrl; % Ctrl, FLT3(D835V) (kinases [6]; target FLT3(D835V); 1 μM): 1.1 % Ctrl |
| Cc1cc2c([nH]1)/C=C1\C(=O)Nc3ccc(cc31)-c1cnn(C)c1COCCN(C)C2=O [Ex. 124, [3a(4)Z]-6,9,14-trimethyl-10,11,13,14-tetrahydro-2H-1,17-(ethanediylidene)pyrazolo[4,3-m]dipyrrolo[3,2-f:3′,4′-i][1,4]oxazacyclopentadecine-3,8(5H,9H)-dione] | 0 % Ctrl | 0 % Ctrl | 0.2 % Ctrl | 97 % Ctrl | 0.4 % Ctrl | 0.05 % Ctrl | 0 % Ctrl |  |
